Seven compounds from ChEMBL document CHEMBL1157448, “Antimycotic activity of 4-thioisosteres of flavonoids towards yeast and yeast-like microorganisms” (2008) can be followed below.

Common to all, as to format: functional
For test [1], the system named is Candida albicans. The test is described as follows: Antimycotic activity against Candida albicans DBVPG 6133 by agar diffusion disk bioassay. A general note: A growth-free zone around the sample is the usual read-out of agar diffusion tests.
Test [2] deals with Papiliotrema laurentii. As to the kind of experiment: Antimycotic activity against Cryptococcus laurentii DBVPG 6265 by agar diffusion disk bioassay.
A further test deals with Yarrowia lipolytica. The test is described as follows: Antimycotic activity against Yarrowia lipolytica DBVPG 6053 by agar diffusion disk bioassay.
The test system of test [3] is Saccharomyces cerevisiae. The test is described as follows: Antimycotic activity against Saccharomyces cerevisiae DBVPG 6173 by agar diffusion disk bioassay.
The next test deals with Candida tropicalis. As to the kind of experiment: Antimycotic activity against Candida tropicalis DBVPG 3982 by agar diffusion disk bioassay.
Test [4] concerns Papiliotrema laurentii. The test is described as follows: Antimycotic activity against Cryptococcus laurentii DBVPG 3883 by agar diffusion disk bioassay.
Test [5] relates to Cryptococcus neoformans. The test is described as follows: Antimycotic activity against Filobasidiella neoformans DBVPG 6981 by agar diffusion disk bioassay.
Another test has as its system Clavispora lusitaniae. As to the kind of experiment: Antimycotic activity against Clavispora lusitaniae DBVPG 6142 by agar diffusion disk bioassay.
The subject of the next test is Prototheca wickerhamii. As to the kind of experiment: Antimycotic activity against Prototheca wickerhamii DBVPG 8879 by agar diffusion disk bioassay.
Test [6] has as its system Cryptococcus neoformans. As to the kind of experiment: Antimycotic activity against Filobasidiella neoformans DBVPG 6010 by agar diffusion disk bioassay.
The test system of the next test is Nakaseomyces glabratus. The test is described as follows: Antimycotic activity against Candida glabrata DBVPG 7212 by agar diffusion disk bioassay.
Test [7] deals with Meyerozyma guilliermondii. The test is described as follows: Antimycotic activity against Pichia guilliermondii DBVPG 6140 by agar diffusion disk bioassay.
Test [8] relates to Saccharomyces cerevisiae. The test is described as follows: Antimycotic activity against Saccharomyces cerevisiae DBVPG 6500 by agar diffusion disk bioassay.
The next test has as its system Pichia kudriavzevii. As to the kind of experiment: Antimycotic activity against Issatchenkia orientalis DBVPG 6782 by agar diffusion disk bioassay.
In test [9] the test system is Cryptococcus neoformans. The test is described as follows: Antimycotic activity against Filobasidiella neoformans DBVPG 3428 by agar diffusion disk bioassay.
The subject of test [10] is Candida albicans. The test is described as follows: Antimycotic activity against Candida albicans DBVPG 6157 by agar diffusion disk bioassay.
Test [11] deals with Cryptococcus neoformans. As to the kind of experiment: Antimycotic activity against Filobasidiella neoformans DBVPG 6225 by agar diffusion disk bioassay.
The next test has as its system [Candida] zeylanoides. The test is described as follows: Antimycotic activity against Candida zeylanoides DBVPG 6163 by agar diffusion disk bioassay.
In test [12] the test system is Papiliotrema laurentii. The test is described as follows: Antimycotic activity against Cryptococcus laurentii DBVPG 4272 by agar diffusion disk bioassay.
In test [13] the test system is Cryptococcus neoformans. As to the kind of experiment: Antimycotic activity against Filobasidiella neoformans DBVPG 6982 by agar diffusion disk bioassay.
The next test relates to Kluyveromyces marxianus. The test is described as follows: Antimycotic activity against Kluyveromyces marxianus DBVPG 6141 by agar diffusion disk bioassay.

Turning to `Oc1ccc(C2CSc3ccc(O)cc3O2)cc1` (stereo not given), the inhibition zone (IZ) was 16.2 mm with Candida albicans [1]; 17.8 mm in the test with Papiliotrema laurentii [2]; 16.5 mm in the test on Yarrowia lipolytica; 15.6 mm with Saccharomyces cerevisiae [3]; 15.5 mm in the test with Candida tropicalis; 22.6 mm in the test on Papiliotrema laurentii [4]. Besides, the inhibition zone (IZ) came out at 15.6 mm in the test on Cryptococcus neoformans [5]; 12.4 mm in the test with Clavispora lusitaniae; 17.8 mm in the test on Prototheca wickerhamii; 15.5 mm with Cryptococcus neoformans [6]; 13.1 mm with Nakaseomyces glabratus; 17.2 mm in [7]. The inhibition zone (IZ) in the test on Saccharomyces cerevisiae [8] is 19.2 mm; with Pichia kudriavzevii, 14 mm; in the test on Cryptococcus neoformans [9], 17.4 mm; in the test on Candida albicans [10], 18.3 mm; in the test on Cryptococcus neoformans [11], 17 mm; in [Candida] zeylanoides, 16.4 mm. For the same compound, in the test on Papiliotrema laurentii [12], the inhibition zone (IZ) is 28.5 mm.

Turning to `COc1ccc2c(c1)OC(c1ccc(O)cc1)CS2` (stereo not given), the inhibition zone (IZ) in the test with Candida albicans [1] amounted to 17.5 mm; with Papiliotrema laurentii [2] it was 20.6 mm; in the test on Yarrowia lipolytica, 15.8 mm; with Saccharomyces cerevisiae [3], 24.1 mm; with Candida tropicalis it was 20.2 mm; in the test on Papiliotrema laurentii [4], 18.2 mm. The inhibition zone (IZ) in the test with Cryptococcus neoformans [5] is 25.1 mm; in the test on Clavispora lusitaniae it was 15.3 mm; with Prototheca wickerhamii, 20.7 mm; with Cryptococcus neoformans [6] it was 35.1 mm; in the test with Saccharomyces cerevisiae [8] it was 18.3 mm; in the test on Pichia kudriavzevii, 17.6 mm. Also, the inhibition zone (IZ) in the test with Cryptococcus neoformans [9] worked out at 20 mm; with Candida albicans [10], 16.5 mm; in the test with Cryptococcus neoformans [11], 18.4 mm; in test [Candida] zeylanoides, 19.4 mm; in the test on Papiliotrema laurentii [12] it was 30.2 mm.

Turning to `Oc1ccc(C2CSc3cc(O)ccc3O2)cc1` (stereo not given), the inhibition zone (IZ) in the test with Papiliotrema laurentii [2] came to 16.9 mm; in the test with Yarrowia lipolytica, 14.3 mm; in the test on Saccharomyces cerevisiae [3], 15.2 mm; with Papiliotrema laurentii [4], 13.8 mm; in the test on Clavispora lusitaniae, 12.9 mm; in the test with Cryptococcus neoformans [6] it was 15.5 mm. For the same compound, the inhibition zone (IZ) worked out at 11.2 mm in the test with Cryptococcus neoformans [11] and 16.4 mm in the test on Papiliotrema laurentii [12].

With `COc1ccc(C2CSc3ccc(O)cc3O2)cc1` (stereo not given), the inhibition zone (IZ) in the test with Papiliotrema laurentii [2] is 16.8 mm; with Yarrowia lipolytica, 15.6 mm; with Cryptococcus neoformans [5] it was 14.2 mm; with Cryptococcus neoformans [6] it was 18.1 mm; with Saccharomyces cerevisiae [8] it was 20.6 mm; in the test with Cryptococcus neoformans [9] it was 14.6 mm. The inhibition zone (IZ) with Candida albicans [10] worked out at 14.1 mm; in the test on Cryptococcus neoformans [11], 14.9 mm; in the test with Cryptococcus neoformans [13], 12.9 mm; with Papiliotrema laurentii [12], 26.4 mm.

Take `COc1ccc(C2CSc3cc(O)ccc3O2)cc1` (stereo not given): the inhibition zone (IZ) in the test on Cryptococcus neoformans [6] stood at 13.6 mm; in the test with Papiliotrema laurentii [12], 22 mm.

Turning to `COc1cc(OC)c2c(c1)OC(c1ccc(O)c(O)c1)CS2` (stereo not given), the inhibition zone (IZ) was found to be 2.6 mm in the test with Papiliotrema laurentii [2]; 14.6 mm with Saccharomyces cerevisiae [3]; 13.1 mm in the test on Papiliotrema laurentii [4]; 13.9 mm in the test with Clavispora lusitaniae; 14.5 mm in the test on Prototheca wickerhamii; 14.9 mm in the test with Saccharomyces cerevisiae [8]. Besides, the results for the inhibition zone (IZ) with Candida albicans [10], in the test on Papiliotrema laurentii [12] and in the test on Kluyveromyces marxianus were 12.1 mm, 19.3 mm and 14.9 mm, respectively.

In the case of `COc1ccc(C2CSc3c(O)cc(O)cc3O2)cc1` (stereo not given), the inhibition zone (IZ) is 12.4 mm in the test on Candida albicans [1]; 13.3 mm with Papiliotrema laurentii [2]; 15.1 mm with Saccharomyces cerevisiae [3]; 14.7 mm in the test with Saccharomyces cerevisiae [8]; 17.5 mm in the test on Papiliotrema laurentii [12].
